pIC50: −log10 of the molar value.
target: T1, Recombinant full length human OGA enzyme (Homo sapiens, UniProt O60502); assay: OGA enzyme inhibition biochemical assay; conditions: 1 nM OGA, 100 μM 4-MUGlcNAc (Km), pH 6.4, 90 minutes at room temperature, 10-point dose-response from 20 μM
T1 construct: Recombinant full length human OGA enzyme was purchased from Origene; purchased Origene
T1 sequence (O60502 1-916): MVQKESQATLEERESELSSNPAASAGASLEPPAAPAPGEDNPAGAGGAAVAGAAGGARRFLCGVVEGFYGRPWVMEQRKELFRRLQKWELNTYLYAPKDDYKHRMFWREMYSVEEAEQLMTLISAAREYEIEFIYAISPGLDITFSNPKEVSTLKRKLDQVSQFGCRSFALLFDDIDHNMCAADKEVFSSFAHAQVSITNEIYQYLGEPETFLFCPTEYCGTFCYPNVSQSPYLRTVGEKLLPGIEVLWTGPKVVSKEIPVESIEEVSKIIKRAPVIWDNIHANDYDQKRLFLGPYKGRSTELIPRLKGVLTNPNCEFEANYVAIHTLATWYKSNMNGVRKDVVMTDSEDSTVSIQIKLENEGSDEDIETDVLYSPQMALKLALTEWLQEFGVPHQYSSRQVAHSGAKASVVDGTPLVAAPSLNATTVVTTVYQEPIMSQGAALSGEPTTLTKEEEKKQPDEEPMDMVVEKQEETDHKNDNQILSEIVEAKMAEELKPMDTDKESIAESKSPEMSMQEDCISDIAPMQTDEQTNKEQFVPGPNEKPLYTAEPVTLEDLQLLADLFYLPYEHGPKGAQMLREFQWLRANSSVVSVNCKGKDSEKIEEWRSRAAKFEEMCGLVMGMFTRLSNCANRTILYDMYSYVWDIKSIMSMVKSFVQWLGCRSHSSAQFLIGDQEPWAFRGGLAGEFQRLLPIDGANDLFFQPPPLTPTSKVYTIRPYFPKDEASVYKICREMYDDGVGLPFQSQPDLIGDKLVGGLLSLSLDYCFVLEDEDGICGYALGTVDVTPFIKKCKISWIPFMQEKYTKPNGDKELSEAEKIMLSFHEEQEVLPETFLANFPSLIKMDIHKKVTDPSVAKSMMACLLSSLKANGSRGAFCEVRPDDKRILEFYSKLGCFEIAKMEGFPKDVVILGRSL
Experimental: N-(5-(((2S,4R)-4-([1,2,4]triazolo[4,3-a]pyrazin-3-yloxy)-2-methylpyrrolidin-1-yl)methyl)-4-fluorothiazol-2-yl)acetamide: The title compound was prepared in an analogous manner as Example 172 from 3-bromo-[1,2,4]triazolo[4,3-a]pyrazine. LCMS (ESI): [M+H] 392. ^1H NMR (600 MHz, CHLOROFORM-d) δ 10.75 (br s, 1H), 9.04 (s, 1H), 9.03 (s, 1H), 7.24 (s, 1H), 4.99-5.06 (m, 1H), 4.01 (d, J=14.49 Hz, 1H), 3.64 (d, J=14.67 Hz, 1H), 3.40 (d, J=11.55 Hz, 1H), 2.75 (dd, J=5.78, 11.46 Hz, 1H), 2.61-2.72 (m, 2H), 2.32 (s, 4H), 1.84-1.92 (m, 1H), 1.30 (d, J=5.87 Hz, 4H). ^19F NMR (565 MHz, CHLOROFORM-d) 6-115.92 (br s, 1F). OGA Enzyme Inhibition Biochemical Assay
Recombinant full length human OGA enzyme was purchased from Origene. 4-MUGlCNAc substrate was purchased from Sigma. All other reagents were purchased from Sigma or Fisher. Assay buffer consists of the McIlvaine buffer system, pH 6.4 (0.2M Na2HPO4 mixed with 0.1M citric acid) and 0.01% BSA. Reactions consist of 1 nM OGA, 100 μM 4-MUGlcNAc (Km), and compound in a final volume of 10 μl. Reactions were incubated for 90 minutes at room temperature and quenched with 40 μl of 3M glycine, pH 10 and read on a Perkin Elmer Envision plate reader (Ex: 355 nm/Em: 460 nm). Compounds were tested with a 10-point dose-response starting from 20 μM with a 4-fold dilution. Data, as presented in Table 1 below, was fit using GraphPad Prism using a 4-parameter fit with variable slope.

Structure (SMILES)	pIC50
CC(=O)Nc1ncc(CN2C[C@H](Oc3ccc4c(Cl)nccc4c3)C[C@@H]2C)s1 [Example 1, N-(5-(((2S,4R)-4-((1-chloroisoquinolin-6-yl)oxy)-2-methylpyrrolidin-1-yl)methyl)thiazol-2-yl)acetamide]	> 9.00
CC(=O)Nc1ncc(CN2C[C@H](Oc3ncc4c(C)csc4n3)C[C@@H]2C)s1 [Example 3, N-(5-(((2S,4R)-2-methyl-4-((5-methylthieno[2,3-d]pyrimidin-2-yl)oxy)pyrrolidin-1-yl)methyl)thiazol-2-yl)acetamide]	> 9.00
CC(=O)Nc1ncc(CN2C[C@H](Oc3cc4c(Cl)ccnc4cc3F)C[C@@H]2C)s1 [Example 7, N-(5-(((2S,4R)-4-((4-chloro-7-fluoroquinolin-6-yl)oxy)-2-methylpyrrolidin-1-yl)methyl)thiazol-2-yl)acetamide]	> 9.00
CC(=O)Nc1ncc(CN2C[C@H](Oc3ncc4c(n3)CCCC4)C[C@@H]2C)s1 [Example 10, N-(5-(((2S,4R)-2-methyl-4-((5,6,7,8-tetrahydroquinazolin-2-yl)oxy)pyrrolidin-1-yl)methyl)thiazol-2-yl)acetamide]	> 9.00
CC(=O)Nc1ncc(CN2C[C@H](Oc3cc(C)nc4ccccc34)C[C@@H]2C)s1 [Example 13, N-(5-(((2S,4R)-2-methyl-4-((2-methylquinolin-4-yl)oxy)pyrrolidin-1-yl)methyl)thiazol-2-yl)acetamide]	> 9.00
CC(=O)Nc1ncc(CN2C[C@H](Oc3ncnc4cc(OC(F)F)ccc34)C[C@@H]2C)s1 [Example 14, N-(5-(((2S,4R)-4-((7-(difluoromethoxy)quinazolin-4-yl)oxy)-2-methylpyrrolidin-1-yl)methyl)thiazol-2-yl)acetamide]	> 9.00
CCc1cc2c(O[C@@H]3C[C@H](C)N(Cc4cnc(NC(C)=O)s4)C3)nccc2o1 [Example 15, N-(5-(((2S,4R)-4-((2-ethylfuro[3,2-c]pyridin-4-yl)oxy)-2-methylpyrrolidin-1-yl)methyl)thiazol-2-yl)acetamide]	> 9.00
CC(=O)Nc1ncc(CN2C[C@H](Oc3nccc4oc(C)cc34)C[C@@H]2C)s1 [Example 16, N-(5-(((2S,4R)-2-methyl-4-((2-methylfuro[3,2-c]pyridin-4-yl)oxy)pyrrolidin-1-yl)methyl)thiazol-2-yl)acetamide]	> 9.00
CC(=O)Nc1ncc(CN2C[C@H](Oc3ccnc4cc(F)ccc34)C[C@@H]2C)s1 [Example 17, N-(5-(((2S,4R)-4-((7-fluoroquinolin-4-yl)oxy)-2-methylpyrrolidin-1-yl)methyl)thiazol-2-yl)acetamide]	> 9.00
CC(=O)Nc1ncc(CN2C[C@H](Oc3ccnc4ccccc34)C[C@@H]2C)s1 [Example 19, N-(5-(((2S,4R)-2-methyl-4-(quinolin-4-yloxy)pyrrolidin-1-yl)methyl)thiazol-2-yl)acetamide]	8.89
CC(=O)Nc1ncc(CN2C[C@H](Oc3cc(C(N)=O)nc4ccccc34)C[C@@H]2C)s1 [Example 21, 4-(((3R,5S)-1-((2-acetamidothiazol-5-yl)methyl)-5-methylpyrrolidin-3-yl)oxy)quinoline-2-carboxamide]	8.72
CC(=O)Nc1ncc(CN2C[C@H](Oc3ccnc4ccc(C)cc34)C[C@@H]2C)s1 [Example 23, N-(5-(((2S,4R)-2-methyl-4-((6-methylquinolin-4-yl)oxy)pyrrolidin-1-yl)methyl)thiazol-2-yl)acetamide]	8.62
CC(=O)Nc1ncc(CN2C[C@H](Oc3nccc4oc(C(N)=O)cc34)C[C@@H]2C)s1 [Example 25, 4-(((3R,5S)-1-((2-acetamidothiazol-5-yl)methyl)-5-methylpyrrolidin-3-yl)oxy)furo[3,2-c]pyridine-2-carboxamide]	8.55

The next lines start with the values.

pIC50	Structure (SMILES)
> 9.00	CC(=O)Nc1ncc(CN2C[C@H](Oc3ccc4cc(C(N)=O)ccc4n3)C[C@@H]2C)s1 [Example 2, 2-(((3R,5S)-1-((2-acetamidothiazol-5-yl)methyl)-5-methylpyrrolidin-3-yl)oxy)quinoline-6-carboxamide]
> 9.00	CC(=O)Nc1ncc(CN2C[C@H](Oc3ccc4sccc4n3)C[C@@H]2C)s1 [Example 4, N-(5-(((2S,4R)-2-methyl-4-(thieno[3,2-b]pyridin-5-yloxy)pyrrolidin-1-yl)methyl)thiazol-2-yl)acetamide]
> 9.00	CC(=O)Nc1ncc(CN2C[C@H](Oc3ccnc4ccsc34)C[C@@H]2C)s1 [Example 5, N-(5-(((2S,4R)-2-methyl-4-(thieno[3,2-b]pyridin-7-yloxy)pyrrolidin-1-yl)methyl)thiazol-2-yl)acetamide]
> 9.00	CC(=O)Nc1ncc(CN2C[C@H](Oc3ccc4ccc(F)cc4n3)C[C@@H]2C)s1 [Example 6, N-(5-(((2S,4R)-4-((7-fluoroquinolin-2-yl)oxy)-2-methylpyrrolidin-1-yl)methyl)thiazol-2-yl)acetamide]
> 9.00	CC(=O)Nc1ncc(CN2C[C@H](Oc3ccc4ccccc4n3)C[C@@H]2C)s1 [Example 8, N-(5-(((2S,4R)-2-methyl-4-(quinolin-2-yloxy)pyrrolidin-1-yl)methyl)thiazol-2-yl)acetamide]
> 9.00	CC(=O)Nc1ncc(CN2C[C@H](Oc3cnc4cc(F)c(F)cc4n3)C[C@@H]2C)s1 [Example 9, N-(5-(((2S,4R)-4-((6,7-difluoroquinoxalin-2-yl)oxy)-2-methylpyrrolidin-1-yl)methyl)thiazol-2-yl)acetamide]
> 9.00	CC(=O)Nc1ncc(CN2C[C@H](Oc3nccc4ccsc34)C[C@@H]2C)s1 [Example 11, N-(5-(((2S,4R)-2-methyl-4-(thieno[2,3-c]pyridin-7-yloxy)pyrrolidin-1-yl)methyl)thiazol-2-yl)acetamide]
> 9.00	CC(=O)Nc1ncc(CN2C[C@H](Oc3cc(C(F)(F)F)c4cn(C)nc4n3)C[C@@H]2C)s1 [Example 12, N-(5-(((2S,4R)-2-methyl-4-((2-methyl-4-(trifluoromethyl)-2H-pyrazolo[3,4-b]pyridin-6-yl)oxy)pyrrolidin-1-yl)methyl)thiazol-2-yl)acetamide]
> 9.00	CC(=O)Nc1ncc(CN2C[C@H](Oc3ccc4nnc(C(F)(F)F)n4n3)C[C@@H]2C)s1 [Example 18, N-(5-(((2S,4R)-2-methyl-4-((3-(trifluoromethyl)-[1,2,4]triazolo[4,3-b]pyridazin-6-yl)oxy)pyrrolidin-1-yl)methyl)thiazol-2-yl)acetamide]
8.80	CC(=O)Nc1ncc(CN2C[C@H](Oc3nn4c(C(F)(F)F)nnc4c(C)c3C)C[C@@H]2C)s1 [Example 20, N-(5-(((2S,4R)-4-((7,8-dimethyl-3-(trifluoromethyl)-[1,2,4]triazolo[4,3-b]pyridazin-6-yl)oxy)-2-methylpyrrolidin-1-yl)methyl)thiazol-2-yl)acetamide]
8.68	CC(=O)Nc1ncc(CN2C[C@H](Oc3nccc4occc34)C[C@@H]2C)s1 [Example 22, N-(5-(((2S,4R)-4-(furo[3,2-c]pyridin-4-yloxy)-2-methylpyrrolidin-1-yl)methyl)thiazol-2-yl)acetamide]
8.60	CC(=O)Nc1ncc(CN2C[C@H](Oc3nccc4sccc34)C[C@@H]2C)s1 [Example 24, N-(5-(((2S,4R)-2-methyl-4-(thieno[3,2-c]pyridin-4-yloxy)pyrrolidin-1-yl)methyl)thiazol-2-yl)acetamide]
